Measured values taken from US10722529B2, “Modulation of NAD+ metabolic pathways for treatment of disease” (Temple University—Of The Commonwealth System of Higher …, priority 2015, dated 2020).
Entries after “also recorded” stand apart in the source; their conditions may differ.

Tests used:
IDO = settings: cited from earlier work
CD4/CD8 ratio = CD4/CD8 ratio in NR dose escalation study in SIV infected macaques; format: in vivo, rhesus macaque; settings: SIV infected animals; highest dose (400 mg/kg)
Description: (§1) As described herein, an increase in the kynurenine to tryptophan ratios in the SIV macaque model was identified, with a positive correlation with viral load and soluble CD163 in plasma. […] In an effort to modulate the kynurenine pathway, and decrease tryptophan metabolism, a dose escalation study was performed with the NAD salvage pathway precursor, nicotinamide riboside (NR), in SIV infected macaques. […] This monocyte subset has been implicated in the pathogenesis of HIV infection, HAND, as well as other HIV associated comorbidities. […] The regulation of the kynurenine pathway appears to be complex, yet an attractive target for HIV therapeutics. Understanding the mechanism by which HIV modulates the kynurenine pathway could provide new therapeutic targets for the treatment of HIV and HAND.

[1] = tested on: kynurenine to tryptophan ratio; assay: Plasma kynurenine to tryptophan ratio (KTR) in NR-treated rhesus macaques; format: in vivo, rhesus macaque
Description: FIG. 8A depicts the KTR in SIV infected animals treated with different concentrations of NR. FIG. 8B depicts the KTR in uninfected animals treated with different concentrations of NR.
as §1
Experiments were then conducted to examine if kynurenine to tryptophan ratios of SIV infected macaques correlate with sCD163 plasma level, ATP plasma level, and viral load. ELISA kits were used according to the manufacturer's directions to determine plasma concentrations of sCD163, kynurenine and tryptophan. Plasma ATP levels were analyzed using ATPLite assay. It was determined that kynurenine to tryptophan ratios increased in relations to higher viral loads (r=0.4774; p=0.0028) (FIG. 5A). Further, a positive correlation between kynurenine to tryptophan ratio and sCD163 plasma concentration was observed (r=0.473; p=0.0027) (FIG. 5B).

[2] = tested on: macrophage colony-stimulating factor (M-CSF); assay: M-CSF in NR treated macaques; format: in vivo, rhesus macaque
Description: FIG. 11 depicts experimental results showing that macrophage colony-stimulating factor (M-CSF) is reduced in NR treated macaques.

SIV = assay: Viral load in SIV infected macaques treated with NR (latency reversal); format: in vivo, rhesus macaque
Description: Four SIV infected macaques were followed over time during chronic infection, two treated with combination anti-retroviral therapy (cART), and two non-treated.

CD14+/CD16+ monocytes = assay: Flow cytometry of CD14/CD16 on PBMC monocytes of NR-treated rhesus macaques; format: in vivo, rhesus macaque; settings: for CD16 expression on CD14+ monocytes (FACS dot plots): five seronegative and four seropositive macaques, before vs after NR
Description: (§2) PBMC from five seronegative and four seropositive rhesus macaques were analyzed after treatment with increasing concentrations of nicotinamide riboside (NR) over a 5-week period.
PBMC from five seronegative and four seropositive rhesus macaques were stained with antibodies to CD14 and CD16 and analyzed by flow cytometry after treatment with increasing concentrations of NR over a 5-week period. The mean fluorescence intensity (MFI) and percent frequency (% Freq) of CD16 was determined for each animal. […] One-way ANOVA was performed *P≤0.05; **P≤0.01; ***P≤0.001; n=9.
as §2, with “Experiments were then conducted to examine whether nicotinamide riboside treatment effects CD16 expression on CD14+ monocytes. PBMC” for “PBMC”
Experiments were then conducted to examine the effects of NR treatment on CD14 and CD16 expression. PBMC from five seronegative and four seropositive rhesus macaques were stained with antibodies to CD14 and CD16 and analyzed by flow cytometry after treatment with increasing concentrations of NR over a 5-week period. The mean fluorescence intensity (MFI) and percent frequency (% Freq) of CD16 was determined for each animal.

human monocytes = assay: CD16 expression in human monocytes isolated from donor PBMCs in the presence of M-CSF; format: cell-based; settings: M-CSF treatment, in vitro
Description: FIG. 12 depicts the flow cytometry gating strategy used to separate two CD16 positive monocyte subsets.
FIG. 14 depicts the mean fluorescent intensity for CD16 expression in human monocytes isolated from donor PBMCs in the presence of M-CSF treatment.

NAD+ = NAD+ concentration in PBMC of rhesus macaques treated with increasing NR over 5 weeks; format: in vivo, rhesus macaque; settings: SIV infected rhesus macaques, increasing concentrations of NR over a 5 week period
Description: Peripheral blood mononuclear cells (PBMC) from five seronegative and four seropositive rhesus macaques were lysed and assayed for NAD+ concentration after treatment with increasing concentrations of nicotinamide riboside (NR) over a 5 week period. […] Paired T test and one way ANOVA was performed *P≤0.05; **P≤0.01 n=9.
Experiments were then conducted to examine the effect of nicotinamide riboside treatment on NAD+ levels in SIV infected animals. Peripheral blood mononuclear cells (PBMC) from five seronegative and four seropositive rhesus macaques were lysed and assayed for NAD+ concentration after treatment with increasing concentrations of nicotinamide riboside (NR) over a 5 week period.

CD38 = CD38 (Homo sapiens, UniProt P28907); settings: at micromolar concentrations; cited from earlier work
intracellular NAD+ = settings: at micromolar concentrations; cited from earlier work
HIV/AIDS = settings: prior to the advent of cART; cited from earlier work
plasma tryptophan = settings: HIV infected subjects, supplementation; cited from earlier work
[3] = tested on: adipose tissue macrophage infiltration; settings: mice; cited from earlier work
HIV = settings: in vitro and in patients; cited from earlier work
[4] = listed as nicotinamide riboside
[5] = uninfected and SIV infected macaques, before vs after NR over 5 weeks

CD38, sequence (P28907 whole entry, species assumed): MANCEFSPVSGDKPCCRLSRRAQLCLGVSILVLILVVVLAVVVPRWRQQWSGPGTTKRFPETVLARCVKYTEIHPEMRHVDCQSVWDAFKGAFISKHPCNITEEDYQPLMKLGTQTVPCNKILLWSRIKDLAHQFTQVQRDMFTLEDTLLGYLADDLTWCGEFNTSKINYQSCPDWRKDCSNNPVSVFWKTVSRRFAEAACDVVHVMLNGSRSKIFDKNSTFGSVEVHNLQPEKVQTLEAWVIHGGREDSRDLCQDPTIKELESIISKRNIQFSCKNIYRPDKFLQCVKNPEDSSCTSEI

In the case of Cn1cc(C[C@H](N)C(=O)O)c2ccccc21 [1-methyl tryptophan], the “effect on tryptophan depletion or alterations in the kynurenine pathway” value (IDO; SIV/rhesus macaque model, IDO blockade) is given as “incapable of affecting” and the “disturbance in K/T over-time” value (IDO; infected animals vs controls) is given as “increased the disturbance in K/T over-time in infected animals but not in controls”.

For NC(=O)c1ccc[n+]([C@@H]2O[C@H](CO)[C@@H](O)[C@H]2O)c1 [NR, nicotinamide riboside], the CD4/CD8 ratio (CD4/CD8 ratio) was “decrease CD4/CD8 ratio”, the “kynurenine to tryptophan ratio” value ([1]; SIV infected animals, 100 mg/kg dose) was “appeared to increase” and the “kynurenine to tryptophan ratio (KTR)” value ([1]; SIV infected animals, different concentrations of NR) was “decreased; also recorded: decreases KTR”. For the same compound, the “kynurenine to tryptophan ratio (KTR)” value ([1]; uninfected (seronegative) animals, relative to pretreatment values) was “no significant impact”, the M-CSF level [2] was “reduces M-CSF; also recorded: reduced” and the “function as latency reversing agent for SIV infection” value (SIV; SIV infected rhesus macaques) was “potential for NR to function as a latency reversing agent; also recorded: may function as a latency reversing agent”. The viral load (SIV; four SIV infected macaques, chronic infection, two on cART, two non-treated, all treated with NR) was “evidence for viral load increase in all animals”, the “viral load over time” value (SIV; the animal on cART with the lowest viral load) was “increase in viral load and then decrease over time” and the “CD16 expression on CD14+ monocytes (FACS dot plots)” value (CD14+/CD16+ monocytes) was “decreased in all animals examined”. The “CD16 expression on CD14+ monocytes (FACS dot plots)” value (CD14+/CD16+ monocytes; [4]) was “significantly decreases”, the “mean fluorescence intensity (MFI) of CD16 on CD14+/CD16+ monocytes” value (CD14+/CD16+ monocytes; [5]) was “significantly reduced; also recorded: significantly higher than after treatment; also recorded: significantly decreases” and the “percent frequency of CD14+/CD16+ monocytes (% Freq of CD16)” value (CD14+/CD16+ monocytes; [5]) was “significantly reduced; also recorded: significantly decreases”. The “CD16 monocyte subset expression” value (human monocytes) was “inhibits CD16 monocyte expression induced by M-CSF; also recorded: reduces CD16 monocyte subset expression”, the “NAD+ concentration in PBMC” value (NAD+) was “significantly increased” and the “NAD+ concentration in PBMC” value (NAD+; [4]) was “increases NAD+ levels”.

For O=c1cc(-c2ccc(O)cc2)oc2cc(O)cc(O)c12 [apigenin], the “inhibition of CD38 enzyme activity” value (CD38) is listed as “inhibit CD38 enzyme activity” and the “intracellular NAD+” value (intracellular NAD+) is listed as “increase intracellular NAD+”.

For O=C(O)c1cccnc1 [niacin], the “delay of progression of HIV/AIDS” value (HIV/AIDS) is listed as “some benefit in delaying the progression of HIV/AIDS”.

In the case of NC(=O)c1cccnc1 [nicotinamide], the plasma tryptophan levels (plasma tryptophan) is listed as “increases plasma tryptophan levels”.

In the case of O=c1c(O)c(-c2ccc(O)c(O)c2)oc2cc(O)cc(O)c12 [quercetin], the “inhibition of CD38 enzyme activity” value (CD38) is listed as “inhibit CD38 enzyme activity”, the “intracellular NAD+” value (intracellular NAD+) is listed as “increase intracellular NAD+” and the SIRT-1 activity [3] is listed as “increased SIRT-1 activity”. The “inflammatory cytokine levels in tissue and sera (TNFα, MCP-1, IL-6)” value [3] was “reduced inflammatory cytokine levels” and the “obesity associated adipose tissue macrophage infiltration” value [3] was “reduce obesity associated adipose tissue macrophage infiltration”.

In the case of O=C(CCCCCCC(=O)Nc1ccccc1)NO [vorinostat], the “latency reversal on repeated dosages” value (HIV) is given as “diminishing returns over time”.
